We go through seven compounds from patent publication US8865894B2, “Oxazolidin-2-one compounds and uses thereof” (Novartis AG, priority 2012, dated 2014).

In assay [1] the target is T1, human PI3Kdelta p110 catalytic subunit (Rat-1 pBABEpuro Myr-HA-hp110 delta) (Homo sapiens, UniProt O00329).
T1 construct: Myr (myristoylation signal) (N); HA (N); expressed in transfected cells; host or cells: Rat-1
Nature of the assay: Cellular assay PI3Kdelta (p-Akt(S473) SureFire, Rat-1_PI3Kdelta cells). It counts as cell-based. As to conditions: 1 h compound treatment, read-out: Rat1-PI3Kd/ IC50. An excerpt:
(§1) AlphaScreen (Amplified Luminescent Proximity Homogeneous Assay, ALPHA, Perkin Elmer) is a non-radioactive bead-based proximity assay technology to study biomolecular interactions in a homogenous microtiter plate format. The brand name SureFire denotes AlphaScreen assays that are adapted to quantify the phosphorylation of endogenous cellular proteins in cell lysates, by using matched antibody pairs, which consist of an anti-phospho-kinase and an anti-kinase antibody. The assay allows characterization of kinase signaling in cells as well as measurement of kinase inhibitor effects. The AlphaScreen technology provides several advantages over standard assay techniques such as ELISA, as it avoids time-consuming washing procedures and reduces plate handling. Furthermore, it is miniaturizable at least to a 384-well format and provides sensitivity down to the femtomolar range, dependent on the affinity of the antibodies included in the individual AlphaScreen SureFire assay kit. High sensitivity is reached by an intrinsic amplification mechanism, which involves production of singlet oxygen molecules. SureFire assay kits are commercially available for specific targets and include pairs of validated antibodies (PerkinElmer). This report describes common procedures applied for AlphaScreen SureFire assays and respective semi-automated steps for routine kinase inhibitor profiling in cell-based assays.
(§2) The Rat-1 cell lines stably overexpressing activated PI3K class I isoforms Rat-1 pBABEpuro Myr-HA-hp110 delta (Rat-1_PI3Kdelta) and Rat-1 pBABEpuro Myr-HA-hp110alpha (Rat-1_PI3Kalpha) and Rat-1 pBABEpuro Myr-HA-hp110 beta (Rat-1_PI3beta) were prepared as described (Maira S M, Stauffer F, Brueggen J, Furet P, Schnell C, Fritsch C, Brachmann S, Chène P, de Pover A, Schoemaker K, Fabbro D, Gabriel D, Simonen M, Murphy L, Finan P, Sellers W, García-Echeverría C (2008), Mol Cancer Ther. 7:1851-63 and Maira S M, Pecchi S, Brueggen J, Huh K, Schnell C, Fritsch C, Nagel T, Wiesmann M, Brachmann S, Dorsch M, Chène P, Schoemaker K, De Pover A, Menezes D, Fabbro D, Sellers W, García-Echeverría C, Voliva C F (2011), Mol. Cancer Ther., accepted). All cell lines were cultivated in complete growth medium (DMEM high glucose, 10% (v/v) fetal bovine serum, 1% (v/v) MEM NEAA, 10 mM HEPES, 2 mM L-glutamine, puromycin (10 μg/mL for Rat-1_PI3Kdelta and Rat-1_PI3Kalpha, 4 ug/mL for Rat-1_PI3beta), 1% (v/v) Pen/Strep) to 90% confluency at 37° C./5% CO2/90% humidity in a humidified CO2 incubator and were split twice a week.
(§3) The following materials were used for p-AKT(S473) detection in Rat-1 cell lysates: Dulbecco's modified Eagle's medium (DMEM) high glucose (Gibco Invitrogen, Basel, Switzerland, Cat. No. 41965), Heat Inactivated Fetal Bovine Serum, Qualified (HI FBS; Gibco Invitrogen, Basel, Switzerland, Lot. No. 16140), MEM non essential amino acids (NEAA; Gibco Invitrogen, Basel, Switzerland, Cat. No. 11140), HEPES (Gibco Invitrogen, Basel, Switzerland, Cat. No. 15630), Penicillin/Streptomycin (Pen/Strep, 100×; Gibco Invitrogen, Basel, Switzerland, Cat. No. 15140-122), L-Glutamine (Gibco Invitrogen, Basel, Switzerland, Cat. No. 25030), Puromycin (Sigma Aldrich, Buchs, Switzerland, Cat. No. P9620), DMSO (MERCK, Dietikon, Switzerland, Cat. No. 8.02912.2500), H2O, MilliQ-H2O unless otherwise stated (MILLIPORE QGARDOOR1, Millipore, Zug, Switzerland), Bovine serum albumine (BSA; Sigma Aldrich, Buchs, Switzerland Cat. No. A8412), SureFire p-Akt 1/2 (Ser473) Assay Kit (PerkinElmer, Schwerzenbach, Switzerland, Cat. No. TGRAS50K).
(§4) The p-Akt(S473) SureFire assay measures the phosphorylation of endogenous cellular Akt 1/2 at Ser473 in cell lysates. Using Rat-1 cells stably expressing myr-HA-tagged versions of the human PI3Kdelta, PI3Kalpha, or PI3Kbeta p110 catalytic subunit isoforms, the assay was developed as a two-plate protocol in a 384-well format.

For assay [2], the target named is T2, human PI3Kbeta p110 catalytic subunit (Rat-1 pBABEpuro Myr-HA-hp110 beta) (Homo sapiens, UniProt P42338).
T2 construct: Myr (myristoylation signal) (N); HA (N); expressed in transfected cells; host or cells: Rat-1
T2 sequence (P42338 whole entry): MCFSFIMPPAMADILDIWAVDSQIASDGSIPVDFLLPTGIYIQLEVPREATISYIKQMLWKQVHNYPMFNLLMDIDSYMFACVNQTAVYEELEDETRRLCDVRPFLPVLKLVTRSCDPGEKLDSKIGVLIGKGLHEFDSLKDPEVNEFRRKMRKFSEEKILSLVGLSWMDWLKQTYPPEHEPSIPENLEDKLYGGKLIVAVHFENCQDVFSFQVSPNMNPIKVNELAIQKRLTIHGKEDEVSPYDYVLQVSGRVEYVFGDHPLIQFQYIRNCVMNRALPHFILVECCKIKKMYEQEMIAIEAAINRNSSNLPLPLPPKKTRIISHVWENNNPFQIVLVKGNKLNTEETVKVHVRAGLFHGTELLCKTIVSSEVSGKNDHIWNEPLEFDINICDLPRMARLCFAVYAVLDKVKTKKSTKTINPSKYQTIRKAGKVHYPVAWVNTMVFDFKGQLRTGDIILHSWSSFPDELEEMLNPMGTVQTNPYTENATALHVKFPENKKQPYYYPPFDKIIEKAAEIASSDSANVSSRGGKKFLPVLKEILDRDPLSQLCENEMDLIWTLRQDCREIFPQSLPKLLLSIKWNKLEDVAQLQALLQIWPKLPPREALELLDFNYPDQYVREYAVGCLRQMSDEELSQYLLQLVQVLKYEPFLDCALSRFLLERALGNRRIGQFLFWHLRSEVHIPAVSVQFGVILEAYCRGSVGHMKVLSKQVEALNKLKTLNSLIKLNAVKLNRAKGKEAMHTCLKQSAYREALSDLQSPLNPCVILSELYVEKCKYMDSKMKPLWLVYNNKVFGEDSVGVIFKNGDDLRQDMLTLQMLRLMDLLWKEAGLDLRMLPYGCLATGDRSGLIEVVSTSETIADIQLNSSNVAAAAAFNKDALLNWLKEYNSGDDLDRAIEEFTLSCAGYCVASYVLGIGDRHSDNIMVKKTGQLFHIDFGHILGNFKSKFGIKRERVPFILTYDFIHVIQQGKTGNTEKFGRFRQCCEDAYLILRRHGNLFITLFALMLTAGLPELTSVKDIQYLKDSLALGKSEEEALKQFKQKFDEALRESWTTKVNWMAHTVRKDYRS
T2 sequence (Q63787 whole entry partner): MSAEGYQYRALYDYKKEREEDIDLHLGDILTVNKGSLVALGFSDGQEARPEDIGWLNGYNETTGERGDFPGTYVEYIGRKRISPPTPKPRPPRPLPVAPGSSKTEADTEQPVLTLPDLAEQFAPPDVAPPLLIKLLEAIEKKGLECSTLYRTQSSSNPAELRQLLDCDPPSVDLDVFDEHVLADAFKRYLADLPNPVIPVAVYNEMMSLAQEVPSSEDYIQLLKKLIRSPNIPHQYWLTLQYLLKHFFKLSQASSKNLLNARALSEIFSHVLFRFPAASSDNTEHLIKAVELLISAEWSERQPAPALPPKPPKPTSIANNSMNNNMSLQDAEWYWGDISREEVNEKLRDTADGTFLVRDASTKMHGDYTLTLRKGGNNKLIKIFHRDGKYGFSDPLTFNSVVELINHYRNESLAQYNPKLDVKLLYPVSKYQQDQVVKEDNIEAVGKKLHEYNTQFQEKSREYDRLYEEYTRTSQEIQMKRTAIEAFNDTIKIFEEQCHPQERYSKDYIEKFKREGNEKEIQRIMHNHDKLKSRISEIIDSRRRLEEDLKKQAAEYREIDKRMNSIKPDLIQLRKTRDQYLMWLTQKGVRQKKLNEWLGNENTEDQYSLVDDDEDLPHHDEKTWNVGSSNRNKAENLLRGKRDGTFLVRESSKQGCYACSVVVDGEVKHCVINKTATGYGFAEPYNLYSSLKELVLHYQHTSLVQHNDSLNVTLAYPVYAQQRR
Nature of the assay: Cellular assay PI3Kbeta (p-Akt(S473) SureFire, Rat-1_PI3beta cells). Type of assay: cell-based. Particulars: p-Akt(S473), 1 h compound treatment; read-out: Rat1-PI3Kb/ IC50.
From the text: as §1, §2, §3, §4

T1 sequence (O00329 whole entry): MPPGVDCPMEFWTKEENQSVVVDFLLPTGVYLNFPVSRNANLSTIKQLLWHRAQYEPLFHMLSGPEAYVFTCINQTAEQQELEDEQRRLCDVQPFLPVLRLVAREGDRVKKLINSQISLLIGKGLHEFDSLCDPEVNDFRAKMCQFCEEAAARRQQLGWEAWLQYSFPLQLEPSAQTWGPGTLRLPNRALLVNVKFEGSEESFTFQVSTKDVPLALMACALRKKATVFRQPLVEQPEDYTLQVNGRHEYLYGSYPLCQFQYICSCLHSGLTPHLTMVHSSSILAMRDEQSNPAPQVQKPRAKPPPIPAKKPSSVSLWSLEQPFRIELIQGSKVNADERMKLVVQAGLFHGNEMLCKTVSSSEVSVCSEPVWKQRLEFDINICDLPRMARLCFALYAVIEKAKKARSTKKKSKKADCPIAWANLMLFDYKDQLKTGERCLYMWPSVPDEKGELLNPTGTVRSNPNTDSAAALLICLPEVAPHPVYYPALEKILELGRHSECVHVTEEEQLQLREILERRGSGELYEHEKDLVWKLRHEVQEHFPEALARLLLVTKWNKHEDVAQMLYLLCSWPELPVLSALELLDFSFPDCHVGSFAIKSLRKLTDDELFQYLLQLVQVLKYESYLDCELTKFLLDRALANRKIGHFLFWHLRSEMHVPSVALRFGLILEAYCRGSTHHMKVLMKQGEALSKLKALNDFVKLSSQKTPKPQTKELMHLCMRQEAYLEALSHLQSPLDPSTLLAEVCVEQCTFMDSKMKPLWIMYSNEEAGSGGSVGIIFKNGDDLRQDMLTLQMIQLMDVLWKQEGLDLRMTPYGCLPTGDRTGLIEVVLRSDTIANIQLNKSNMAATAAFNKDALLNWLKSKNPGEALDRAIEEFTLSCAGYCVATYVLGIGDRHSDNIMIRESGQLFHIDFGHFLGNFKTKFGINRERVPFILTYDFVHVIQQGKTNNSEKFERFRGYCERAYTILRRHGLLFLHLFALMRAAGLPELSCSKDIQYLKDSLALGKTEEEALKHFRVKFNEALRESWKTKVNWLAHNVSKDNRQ
T1 sequence (Q63787 whole entry partner): as the sequence (Q63787 whole entry partner) above

As for `Nc1ncc(-c2cc(N3C(=O)OC4C(O)CCC43)nc(N3CCOCC3)n2)c(C(F)(F)F)n1` (single isomer, unassigned) [Example 22B], the figures for the IC50 in assay [1] and in assay [2] were 5 nM and 125 nM, respectively.

For `C[C@H]1[C@@H](CO)OC(=O)N1c1cc(-c2cnc(N)nc2C(F)(F)F)nc(N2CCOCC2)n1` [Example 19, (4S,5S)-3-(2′-Amino-2-morpholin-4-yl-4′-trifluoromethyl-[4,5′]bipyrimidinyl-6-yl)-5-hydroxymethyl-4-methyl-oxazolidin-2-one], the IC50 was 34 nM in assay [1] and 71 nM in assay [2].

For the compound `C[C@H]1OC(=O)N(c2cc(-c3cnc(N)nc3C(F)(F)F)nc(N3CCOC[C@@H]3C)n2)[C@H]1CO` [Example 10, (4S,5R)-3-[2′-Amino-2-((S)-3-methyl-morpholin-4-yl)-4′-trifluoromethyl-[4,5′]bipyrimidinyl-6-yl]-4-hydroxymethyl-5-methyl-oxazolidin-2-one], the IC50 was 52 nM in assay [1] and 173 nM in assay [2].

`Nc1ncc(-c2cc(N3C(=O)O[C@@H]4[C@@H](O)CC[C@@H]43)nc(N3CCOCC3)n2)c(C(F)(F)F)n1` (racemic) [Example 22, (3aR*,6R*,6aR*)-3-(2′-Amino-2-morpholino-4′-(trifluoromethyl)-[4,5′-bipyrimidin]-6-yl)-6-hydroxyhexahydro-2H-cyclopenta[d]oxazol-2-one]: the IC50 in assay [1] amounted to 27 nM; in assay [2], 77 nM.

For `C[C@H](O)CC1OC(=O)N(c2cc(-c3cnc(N)nc3C(F)(F)F)nc(N3CCOCC3)n2)[C@H]1C` (single isomer, unassigned) [Example 25], the IC50 in assay [1] was 13 nM; in assay [2], 43 nM.

For `[2H]C1([2H])OC([2H])([2H])C([2H])([2H])N(c2nc(-c3cnc(N)nc3C(F)(F)F)cc(N3C(=O)O[C@H](C)[C@@H]3CO)n2)C1([2H])[2H]` [Example 8], the IC50 in assay [1] came to 54 nM; in assay [2], 108 nM.

As for `C[C@H]1OC(=O)N(c2cc(-c3cnc(N)nc3C(F)(F)F)nc(N3CCOCC3)n2)[C@H]1COC=O` [Example 12, Formic acid (4S,5R)-3-(2′-amino-2-morpholin-4-yl-4′-trifluoromethyl-[4,5′]bipyrimidinyl-6-yl)-5-methyl-2-oxo-oxazolidin-4-ylmethyl ester], the IC50 turned out to be 92 nM in assay [1] and 123 nM in assay [2].
